This is an account of results in US6613747B2, “6-O-carbamoyl ketolide antibacterials” (Ortho-McNeil Pharmaceutical, Inc., priority 2000, dated 2003).

The structures appear in SMILES notation. Converted amounts (≈) assume the structure as drawn. A value given as a limit tells only on which side of the number the result lay.

Assay in all cases: MIC, microdilution broth method (NCCLS)
Holding throughout (type): cell-based
A general note: Broth dilution looks for growth in wells or tubes with falling amounts of substance.

The subject of assay [1] is E. coli OC2605. The following applies: A: E. coli OC2605, 35° C., 16-20 hours. The essentials: (§1)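 MIC is read as growth in drug wells versus untreated growth-control wells after 16-20 hours at 35° C. Drug was serially diluted two-fold in cation-adjusted Mueller-Hinton broth. Turbidity-adjusted cultures gave about 5×10^4 CFU per well.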
The test system of assay [2] is E. faecalis ATCC29212. The following applies: C: E. faecalis ATCC29212, 35° C., 16-20 hours. Put shortly:
as §1

Assay [3] concerns H. influenzae ATCC49247. Conditions: E: H. influenzae ATCC49247, 35° C., 16-20 hours. Put shortly:
as §1

Assay [4] concerns S. aureus ATCC29213. Conditions: B: S. aureus ATCC29213, 35° C., 16-20 hours. The essentials: as §1
The subject of assay [5] is S. pneumoniae ATCC49619. Conditions: D: S. pneumoniae ATCC49619, 35° C., 16-20 hours. Put shortly:
as §1

On to `CC[C@H]1OC(=O)[C@H](C)C(=O)[C@H](C)[C@@H](O[C@@H]2O[C@H](C)C[C@H](N(C)C)[C@H]2O)[C@](C)(OC(=O)NC/C=C/c2ccc(-c3ncccn3)cc2F)C[C@@H](C)C(=O)[C@H](C)[C@H]2NC(=O)O[C@@]21C` [Compound 88], for which the MIC is 16 µg/mL (≈ 18.7 µM) in assay [1]; 0.06 µg/mL (≈ 0.0703 µM) in assay [2]; 8 µg/mL (≈ 9.37 µM) in assay [3]; 0.25 µg/mL (≈ 0.293 µM) in assay [4]; 0.06 µg/mL (≈ 0.0703 µM) in assay [5].

For `CC[C@H]1OC(=O)[C@H](C)C(=O)[C@H](C)[C@@H](O[C@@H]2O[C@H](C)C[C@H](N(C)C)[C@H]2O)[C@](C)(OC(=O)NCCN(C)Cc2cnc3ccccc3c2)C[C@@H](C)C(=O)[C@H](C)[C@H]2NC(=O)O[C@@]21C` [Compound 119], the MIC in assay [1] is greater than 16 µg/mL; in assay [2] it was 0.25 µg/mL (≈ 0.298 µM); in assay [3] it was 8 µg/mL (≈ 9.52 µM); in assay [4], 4 µg/mL (≈ 4.76 µM); in assay [5], 0.06 µg/mL (≈ 0.0714 µM).

Consider `CC[C@H]1OC(=O)[C@H](C)C(=O)[C@H](C)[C@@H](O[C@@H]2O[C@H](C)C[C@H](N(C)C)[C@H]2O)[C@](C)(OC(=O)NC/C=C/c2ccc(-c3cccnc3)cc2)C[C@@H](C)C(=O)[C@H](C)[C@H]2NC(=O)O[C@@]21C` [Compound 23], for which the MIC in assay [1] was 16 µg/mL (≈ 19.2 µM); in assay [2] it was 0.12 µg/mL (≈ 0.144 µM); in assay [3] it was 2 µg/mL (≈ 2.4 µM); in assay [4], 0.25 µg/mL (≈ 0.299 µM); in assay [5] it was 0.06 µg/mL (≈ 0.0719 µM).

With `CC[C@H]1OC(=O)[C@H](C)C(=O)[C@H](C)[C@@H](O[C@@H]2O[C@H](C)C[C@H](N(C)C)[C@H]2O)[C@](C)(OC(=O)NC/C=C/c2cn(-c3ncccn3)cn2)C[C@@H](C)C(=O)[C@H](C)[C@H]2NC(=O)O[C@@]21C` [Compound 92], the MIC in assay [1] was determined as 16 µg/mL (≈ 19.4 µM); in assay [2], 0.12 µg/mL (≈ 0.145 µM); in assay [3], 2 µg/mL (≈ 2.42 µM); in assay [4], 0.25 µg/mL (≈ 0.303 µM); in assay [5] it was 0.03 µg/mL (≈ 0.0363 µM).

`CC[C@H]1OC(=O)[C@H](C)C(=O)[C@H](C)[C@@H](O[C@@H]2O[C@H](C)C[C@H](N(C)C)[C@H]2O)[C@](C)(OC(=O)NC/C=C/c2ccc(-n3cccn3)c(F)c2)C[C@@H](C)C(=O)[C@H](C)[C@H]2NC(=O)O[C@@]21C` [Compound 58]: the MIC is greater than 16 µg/mL in assay [1]; 0.12 µg/mL (≈ 0.143 µM) in assay [2]; 4 µg/mL (≈ 4.75 µM) in assay [3]; 0.25 µg/mL (≈ 0.297 µM) in assay [4]; 0.06 µg/mL (≈ 0.0713 µM) in assay [5].

For `CC[C@H]1OC(=O)[C@H](C)C(=O)[C@H](C)[C@@H](O[C@@H]2O[C@H](C)C[C@H](N(C)C)[C@H]2O)[C@](C)(OC(=O)NC/C=C/c2ccc(-n3cccn3)c(OC)c2)C[C@@H](C)C(=O)[C@H](C)[C@H]2NC(=O)O[C@@]21C` [Compound 84], the MIC in assay [1] is greater than 16 µg/mL; in assay [2] it was 0.12 µg/mL (≈ 0.141 µM); in assay [3], 4 µg/mL (≈ 4.68 µM); in assay [4] it was 0.25 µg/mL (≈ 0.293 µM); in assay [5] it was 0.06 µg/mL (≈ 0.0703 µM).

For the compound `CC[C@H]1OC(=O)[C@H](C)C(=O)[C@H](C)[C@@H](O[C@@H]2O[C@H](C)C[C@H](N(C)C)[C@H]2O)[C@](C)(OC(=O)NCCNCc2cccnc2)C[C@@H](C)C(=O)[C@H](C)[C@H]2NC(=O)O[C@@]21C` [Compound 116], the MIC in assay [1] was greater than 16 µg/mL; in assay [2] it was 1 µg/mL (≈ 1.29 µM); in assay [3], 8 µg/mL (≈ 10.3 µM); in assay [4] it was 2 µg/mL (≈ 2.58 µM); in assay [5], 0.12 µg/mL (≈ 0.155 µM).

With `CC[C@H]1OC(=O)[C@H](C)C(=O)[C@H](C)[C@@H](O[C@@H]2O[C@H](C)C[C@H](N(C)C)[C@H]2O)[C@](C)(OC(=O)NCc2ccc(-c3cccnn3)cc2)C[C@@H](C)C(=O)[C@H](C)[C@H]2NC(=O)O[C@@]21C` [Compound 97], the MIC in assay [1] came out at 16 µg/mL (≈ 19.8 µM); in assay [2], 0.06 µg/mL (≈ 0.0741 µM); in assay [3], 2 µg/mL (≈ 2.47 µM); in assay [4], 0.5 µg/mL (≈ 0.617 µM); in assay [5], 0.03 µg/mL (≈ 0.037 µM).

Turning to `CC[C@H]1OC(=O)[C@H](C)C(=O)[C@H](C)[C@@H](O[C@@H]2O[C@H](C)C[C@H](N(C)C)[C@H]2O)[C@](C)(OC(=O)NC/C=C/c2ccc(-c3nccc(OC)n3)cc2)C[C@@H](C)C(=O)[C@H](C)[C@H]2NC(=O)O[C@@]21C` [Compound 71], the MIC in assay [1] was greater than 16 µg/mL; in assay [2], 0.12 µg/mL (≈ 0.139 µM); in assay [3] it was 4 µg/mL (≈ 4.62 µM); in assay [4], 0.25 µg/mL (≈ 0.289 µM); in assay [5], 0.06 µg/mL (≈ 0.0693 µM).

Turning to `CC[C@H]1OC(=O)[C@H](C)C(=O)[C@H](C)[C@@H](O[C@@H]2O[C@H](C)C[C@H](N(C)C)[C@H]2O)[C@](C)(OC(=O)NC/C=C/c2ccc(Oc3ncccn3)cc2)C[C@@H](C)C(=O)[C@H](C)[C@H]2NC(=O)O[C@@]21C` [Compound 86], the MIC is greater than 16 µg/mL in assay [1]; 0.12 µg/mL (≈ 0.141 µM) in assay [2]; 8 µg/mL (≈ 9.39 µM) in assay [3]; 0.5 µg/mL (≈ 0.587 µM) in assay [4]; 0.06 µg/mL (≈ 0.0704 µM) in assay [5].

Take `CC[C@H]1OC(=O)[C@H](C)C(=O)[C@H](C)[C@@H](O[C@@H]2O[C@H](C)C[C@H](N(C)C)[C@H]2O)[C@](C)(OC(=O)N(CC#Cc2ccccc2)CC#Cc2ccccc2)C[C@@H](C)C(=O)[C@H](C)[C@H]2NC(=O)O[C@@]21C` [Compound 11]: the MIC is greater than 16 µg/mL in assay [1]; 2 µg/mL (≈ 2.3 µM) in assay [2]; greater than 16 µg/mL in assay [3]; 4 µg/mL (≈ 4.6 µM) in assay [4]; 0.5 µg/mL (≈ 0.575 µM) in assay [5].

As to `CC[C@H]1OC(=O)[C@H](C)C(=O)[C@H](C)[C@@H](O[C@@H]2O[C@H](C)C[C@H](N(C)C)[C@H]2O)[C@](C)(OC(=O)NCc2ccc(-c3ccc([N+](=O)[O-])cn3)cc2)C[C@@H](C)C(=O)[C@H](C)[C@H]2NC(=O)O[C@@]21C` [Compound 42], the MIC came out at 16 µg/mL (≈ 18.7 µM) in assay [1]; 0.12 µg/mL (≈ 0.141 µM) in assay [2]; 1 µg/mL (≈ 1.17 µM) in assay [3]; 0.5 µg/mL (≈ 0.586 µM) in assay [4]; 0.12 µg/mL (≈ 0.141 µM) in assay [5].

With `CC[C@H]1OC(=O)[C@H](C)C(=O)[C@H](C)[C@@H](O[C@@H]2O[C@H](C)C[C@H](N(C)C)[C@H]2O)[C@](C)(OC(=O)NCCCc2ccc(N(C)C)cc2)C[C@@H](C)C(=O)[C@H](C)[C@H]2NC(=O)O[C@@]21C` [Compound 14], the MIC in assay [1] was greater than 16 µg/mL; in assay [2], 0.5 µg/mL (≈ 0.623 µM); in assay [3] it was greater than 16 µg/mL; in assay [4], 8 µg/mL (≈ 9.96 µM); in assay [5], 0.12 µg/mL (≈ 0.149 µM).

With `CCC1OC(=O)C(C)(F)C(=O)C(C)C(OC2OC(C)CC(N(C)C)C2O)C(C)(OC(=O)NCC=Cc2ccccc2)CC(C)C(=NO)C(C)C2NC(=O)OC12C` (stereo not drawn) [Compound 129], the MIC was determined as 8 µg/mL (≈ 10.1 µM) in assay [1]; 0.12 µg/mL (≈ 0.152 µM) in assay [2]; 1 µg/mL (≈ 1.26 µM) in assay [3]; 0.25 µg/mL (≈ 0.316 µM) in assay [4]; 0.03 µg/mL (≈ 0.0379 µM) in assay [5].

Regarding `CC[C@H]1OC(=O)[C@H](C)C(=O)[C@H](C)[C@@H](O[C@@H]2O[C@H](C)C[C@H](N(C)C)[C@H]2O)[C@](C)(OC(=O)NCc2ccc(Oc3ncccn3)cc2)C[C@@H](C)C(=O)[C@H](C)[C@H]2NC(=O)O[C@@]21C` [Compound 83], the MIC in assay [1] was greater than 16 µg/mL; in assay [2], 0.25 µg/mL (≈ 0.303 µM); in assay [3], 8 µg/mL (≈ 9.69 µM); in assay [4], 2 µg/mL (≈ 2.42 µM); in assay [5], 0.06 µg/mL (≈ 0.0726 µM).
